Assay results from publication PMC7559125 (Pathogens, 2020).
pEC50, pIC50: −log10 of the molar value. Like-named read-outs stand apart in the source and are kept apart here.

Columns and labels:
[1] = test system: neuraminidase of the dual H275Y mutant viruses
[2] = molecular target: neuraminidase of A/Osaka/8/2014 (H275Y) (Influenza A virus, UniProt W8DXJ8, H275Y)
[3] = molecular target: neuraminidase of A/Ibaraki/54/2016 (H275Y/I223K) (Influenza A virus, UniProt A0A0X9QTS2, H275Y/I223K)
[4] = molecular target: neuraminidase of A/Aichi/83/2016 (H275Y) (Influenza A virus, UniProt A0A0X9QTS2, H275Y)
[5] = molecular target: neuraminidase of A/Hiroshima/13/2016 (H275Y/G147R) (Influenza A virus, UniProt A0A0X9QTS2, G147R/H275Y)
[6] = molecular target: neuraminidase of A/Yokohama/94/2016 (H275Y) (Influenza A virus, UniProt A0A0X9QTS2, H275Y)
[7] = molecular target: neuraminidase of A/Hiroshima/57/2014 (H275Y/I223R) (Influenza A virus, UniProt W8DXJ8, H275Y/I223R)
[8] = test system: A/Hiroshima/13/2016 (H275Y/G147R)
[9] = test system: A/Hiroshima/57/2014 (H275Y/I223R)
A/Osaka/8/2014 (H275Y) [10] = test system: A/Osaka/8/2014 (H275Y)
[11] = test system: All viruses tested (dual H275Y, single H275Y, wild-type)
[12] = test system: A/Ibaraki/54/2016 (H275Y/I223K)
[13] = test system: A/Yokohama/94/2016 (H275Y)
A/Aichi/83/2016 (H275Y) [14] = test system: A/Aichi/83/2016 (H275Y)
[15] = test system: A/Hiroshima/13/2016 (H275Y/G147R); remark: listed apart in the source
A/Osaka/8/2014 (H275Y) [16] = test system: A/Osaka/8/2014 (H275Y); remark: listed apart in the source
[17] = test system: A/Hiroshima/57/2014 (H275Y/I223R); remark: listed apart in the source
[18] = test system: All viruses tested (dual H275Y, single H275Y, wild-type); remark: listed apart in the source
[19] = test system: A/Ibaraki/54/2016 (H275Y/I223K); remark: listed apart in the source
[20] = test system: A/Yokohama/94/2016 (H275Y); remark: listed apart in the source
A/Aichi/83/2016 (H275Y) [21] = test system: A/Aichi/83/2016 (H275Y); remark: listed apart in the source

SMILES: CC(=O)N[C@H]1[C@H]([C@H](O)[C@H](O)CO)OC(C(=O)O)=C[C@@H]1N=C(N)N [Zanamivir, zanamivir hydrate]
- Susceptibility of the H275Y/I223R, H275Y/I223K and H275Y/G147R mutant viruses (in words) [1]: reduced susceptibility

SMILES: CCC(CC)[C@H](NC(C)=O)[C@@H]1[C@H](O)[C@@H](C(=O)O)C[C@H]1N=C(N)N.O.O.O [Peramivir, peramivir trihydrate]
- Fold-change in IC50 compared with the wild-type virus [2]: 28.25 (2,800) fold
- pIC50 [2]: 7.55
- Fold-change in IC50 compared with the wild-type virus [3]: 501.62 (7,200) fold
- pIC50 [3]: 6.30
- Fold-change in IC50 compared with the wild-type virus [4]: 31.93 (400) fold
- pIC50 [4]: 7.50
- Fold-change in IC50 compared with the wild-type virus [5]: 114.14 (1,400) fold
- pIC50 [5]: 6.94
- Susceptibility of the H275Y/I223R, H275Y/I223K and H275Y/G147R mutant viruses (in words) [1]: enhanced cross-resistance
- Fold-change in IC50 compared with the wild-type virus [6]: 20.88 (300) fold
- pIC50 [6]: 7.68
- Fold-change in IC50 compared with the wild-type virus [7]: 944.20 (94,000) fold
- pIC50 [7]: 6.02

SMILES: NC(=O)c1nc(F)c[nH]c1=O [Favipiravir, favipiravir]
- pEC50 [8]: 4.82
- Fold-change in EC50 compared with the wild-type virus [8]: 15.13 (1.7) fold
- pEC50 [9]: 5.10
- Fold-change in EC50 compared with the wild-type virus [9]: 7.99 (1.2) fold
- pEC50 (A/Osaka/8/2014 (H275Y) [10]): 5.32
- Fold-change in EC50 compared with the wild-type virus (A/Osaka/8/2014 (H275Y) [10]): 4.76 (0.7) fold
- Susceptibility of all viruses tested (in words) [11]: susceptible
- pEC50 [12]: 4.99
- Fold-change in EC50 compared with the wild-type virus [12]: 10.20 (1.0) fold
- pEC50 [13]: 4.67
- Fold-change in EC50 compared with the wild-type virus [13]: 21.40 (2.1) fold
- pEC50 (A/Aichi/83/2016 (H275Y) [14]): 4.83
- Fold-change in EC50 compared with the wild-type virus (A/Aichi/83/2016 (H275Y) [14]): 14.83 (1.7) fold

SMILES: O=C1c2c(O)c(=O)ccn2N([C@@H]2c3ccccc3SCc3c2ccc(F)c3F)[C@@H]2COCCN12 [Baloxavir, Baloxavir acid]
- Fold-change in IC50 compared with the wild-type virus [15]: 10.59 (1.0) fold
- pIC50 [15]: 7.98
- Fold-change in IC50 compared with the wild-type virus (A/Osaka/8/2014 (H275Y) [16]): 5.10 (1.3) fold
- pIC50 (A/Osaka/8/2014 (H275Y) [16]): 8.29
- Fold-change in IC50 compared with the wild-type virus [17]: 8.34 (2.1) fold
- pIC50 [17]: 8.08
- Susceptibility of all viruses tested (in words) [18]: susceptible
- Fold-change in IC50 compared with the wild-type virus [19]: 7.24 (1.2) fold
- pIC50 [19]: 8.14
- Fold-change in IC50 compared with the wild-type virus [20]: 3.49 (0.6) fold
- pIC50 [20]: 8.46
- Fold-change in IC50 compared with the wild-type virus (A/Aichi/83/2016 (H275Y) [21]): 10.18 (0.9) fold
- pIC50 (A/Aichi/83/2016 (H275Y) [21]): 7.99

SMILES: [H]/N=C(\N)N[C@H]1C=C(C(=O)O)O[C@@H]([C@H](OC)[C@H](O)CO)[C@@H]1NC(C)=O [Laninamivir]
- Susceptibility of the H275Y/G147R mutant virus (in words) [5]: retained susceptibility
- Susceptibility of the H275Y/I223R and H275Y/I223K mutant viruses (in words) [1]: reduced susceptibility
